Like-named read-outs stand apart in the source and are kept apart here.
Molecular target: T1, hTLR8 (Homo sapiens, UniProt Q9NR97)
T1 construct: host or cells: HEK293 cells stably transfected with hTLR8
T1 sequence (Q9NR97 27-1041): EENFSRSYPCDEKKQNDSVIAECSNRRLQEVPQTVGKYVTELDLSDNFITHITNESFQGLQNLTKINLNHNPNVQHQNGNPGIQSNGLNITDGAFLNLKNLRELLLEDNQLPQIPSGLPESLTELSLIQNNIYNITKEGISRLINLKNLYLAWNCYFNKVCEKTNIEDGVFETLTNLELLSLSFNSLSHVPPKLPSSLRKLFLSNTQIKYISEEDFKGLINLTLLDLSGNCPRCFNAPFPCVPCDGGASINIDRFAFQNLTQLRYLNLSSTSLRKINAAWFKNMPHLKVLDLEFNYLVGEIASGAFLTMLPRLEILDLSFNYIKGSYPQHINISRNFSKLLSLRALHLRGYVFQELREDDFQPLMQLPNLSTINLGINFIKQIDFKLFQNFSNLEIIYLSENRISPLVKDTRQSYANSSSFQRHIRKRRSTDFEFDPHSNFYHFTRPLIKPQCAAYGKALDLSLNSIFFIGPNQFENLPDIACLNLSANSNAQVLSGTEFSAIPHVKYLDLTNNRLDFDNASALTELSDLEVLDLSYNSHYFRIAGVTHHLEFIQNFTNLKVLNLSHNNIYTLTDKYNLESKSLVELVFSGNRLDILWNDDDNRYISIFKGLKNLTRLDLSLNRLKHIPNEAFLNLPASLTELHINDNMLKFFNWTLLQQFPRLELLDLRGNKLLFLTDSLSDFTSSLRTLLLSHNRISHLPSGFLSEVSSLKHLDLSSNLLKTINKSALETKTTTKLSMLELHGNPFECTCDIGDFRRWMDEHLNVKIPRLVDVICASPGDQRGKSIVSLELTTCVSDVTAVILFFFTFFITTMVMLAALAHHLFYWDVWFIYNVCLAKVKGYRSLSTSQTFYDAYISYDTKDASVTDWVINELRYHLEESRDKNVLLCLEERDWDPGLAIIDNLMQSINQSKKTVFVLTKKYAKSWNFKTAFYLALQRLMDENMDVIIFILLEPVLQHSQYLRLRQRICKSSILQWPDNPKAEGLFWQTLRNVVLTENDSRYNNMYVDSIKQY
Experiment: HEK-293 hTLR8 transfectant antagonist assay (NF-κB driven SEAP reporter)
Type: cell-based
Conditions: hTLR8 reporter cells
Procedure: The HEK-293 hTLR transfectant assay employs HEK293 cells stably transfected with various hTLRs and transiently co-transfected with a plasmid containing an NF-κB driven secreted embryonic alkaline phosphate (SEAP) reporter gene. Stimulation of TLRs activates their downstream signaling pathways and induces nuclear translocation of the transcription factor NF-κB. Reporter gene activity is then measured using a spectrophotometric assay. To measure antagonist activity, human embryonic kidney (HEK) cells (e.g., 293XL-hTLR8 cells available from InvivoGen, San Diego, Calif.) are prepared according to supplier's instructions and incubated with various concentrations of test compound overnight. The amount of induced […] is measured by reading the absorbance at 650 nm. The compounds of the invention have an MC50 of 25 μM or less, wherein MC50 is defined as the concentration at which 50% of maximum induction is seen. For the TLR8 antagonist assays, cells are transiently transfected with the reporter gene on Day 1 per the supplier's instructions. Antagonist compounds are added to the cultures on Day 2 followed by addition of a TLR8 agonist approximately 2 hours later. Cultures are incubated overnight and SEAP activity is measured on Day 3. In a typical assay, 50,000 HEK239 hTLR8 cells are seeded per culture well and transiently transfected with the SEAP reporter gene. Antagonists are added to cultures in culture medium and […] DMSO over a concentration range of 0.1 nanomolar to 10 micromolar. TLR8 agonists are added to cultures 2 hours later at a fixed concentration (e.g., 1 micromolar or 10 micromolar of Compound A) and cultures are then incubated for 16-24 hrs at 37° C. in a humidified CO incubator. Antagonists are also evaluated for activity in the absence of agonist. TLR8 antagonist activity was measured in a hTLR8 assay format, measuring IC50 values. […] IC50s were then calculated.

[1] = IC50, nM, vs. VTX-378 1 μM, TLR8 agonist VTX-378 (Compound A) 1 μM
[2] = TLR8 agonist VTX-378 (Compound A) 0.5 μM, read-out: IC50, nM, vs. VTX-378 0.5 μM
[3] = IC50, nM, vs. VTX-378 10 μM, TLR8 agonist VTX-378 (Compound A) 10 μM
[4] = IC50, nM, vs. 3M002 10 μM, agonist 3M002 10 μM
[5] = IC50, nM, vs. 3M002 1 μM, agonist 3M002 1 μM

Row | SMILES | IC50 [1] [nM] | IC50 [2] [nM] | IC50 [3] [nM] | IC50 [4] [nM] | IC50 [5] [nM]
1 | CCOC(=O)C1=Cc2cc(Oc3cccc(C(F)(F)F)c3)ccc2N=C(N)C1 [Compound 3046] | 1000 to 10000 |  | ≥ 10000 | 1000 to 10000 | 
2 | CCOC(=O)C1=Cc2cc(-c3ccc(C(=O)N4CCCC4)cc3C)ccc2N=C(N)C1 [Compound 3119, Ethyl 2-amino-7-[2-methyl-4-(pyrrolidin-1-ylcarbonyl)phenyl]-3H-1-benzazepine-4-carboxylate] | < 1000 | < 1000 |  | < 1000 | 
3 | CCOC(=O)C1=Cc2cc(-c3ccc(C(=O)OCC)cc3)ccc2N=C(N)C1 [Compound 3101, Ethyl 2-amino-7-[4-(ethoxycarbonyl)phenyl]-3H-1-benzazepine-4-carboxylate] | ≥ 10000 | 1000 to 10000 |  | ≥ 10000 | 
4 | CCOC(=O)C1=Cc2cc(-c3cccc(C(=O)N(C)C)c3)ccc2N=C(N)C1 [Compound 3058, Ethyl 2-amino-7-[3-(dimethylcarbamoyl)phenyl]-3H-1-benzazepine-4-carboxylate] | 1000 to 10000 |  | ≥ 10000 |  | 
5 | CCOC(=O)C1=Cc2cc(Oc3ccc(C(=O)N(C)C)cc3)ccc2N=C(N)C1 [Compound 3093] | ≥ 10000 |  | ≥ 10000 | ≥ 10000 | 
6 | CCOC(=O)C1=Cc2cc(-c3ccc(C(=O)N(C)C)cc3)ccc2N=C(N)C1 [Compound 2937, Ethyl 2-amino-7-[4-(dimethylcarbamoyl)phenyl]-3H-1-benzazepine-4-carboxylate] | < 1000 |  | ≥ 10000 |  | 
7 | CCOC(=O)C1=Cc2cc(-c3ccccc3C(F)(F)F)ccc2N=C(N)C1 [Compound 3126, Ethyl 2-amino-7-[2-(trifluoromethyl)phenyl]-3H-1-benzazepine-4-carboxylate] | 1000 to 10000 | < 1000 |  | 1000 to 10000 | < 1000
8 | CCOC(=O)C1=Cc2cc(Oc3ccc(OC)cc3)ccc2N=C(N)C1 [Compound 3125] | 1000 to 10000 | 1000 to 10000 |  | ≥ 10000 | 1000 to 10000

Now from value to compound:

Row | IC50 [1] [nM] | IC50 [2] [nM] | IC50 [3] [nM] | IC50 [4] [nM] | IC50 [5] [nM] | SMILES
9 | 1000 to 10000 | 1000 to 10000 |  |  |  | CCOC(=O)C1=Cc2cc(C3=CCN(C(=O)N4CCCC4)CC3)ccc2N=C(N)C1 [Compound 3254]
10 | 1000 to 10000 |  | 1000 to 10000 |  |  | CCOC(=O)C1=Cc2cc(C(=O)OC(C)C)ccc2N=C(N)C1 [Compound 3197]
11 | 1000 to 10000 | < 1000 |  | 1000 to 10000 | < 1000 | CCOC(=O)C1=Cc2cc(Oc3ccccc3C)ccc2N=C(N)C1 [Compound 3128]
12 | 1000 to 10000 | < 1000 |  | 1000 to 10000 | < 1000 | CCOC(=O)C1=Cc2cc(-c3ccc(NC(=O)N(C)C)cc3)ccc2N=C(N)C1 [Compound 3290, Ethyl 2-amino-7-{4-[(dimethylcarbamoyl)amino]phenyl}-3H-1-benzazepine-4-carboxylate]
13 | < 1000 | < 1000 |  | < 1000 | < 1000 | CCOC(=O)C1=Cc2cc(-c3ccc(N4CCOC4=O)cc3)ccc2N=C(N)C1 [Compound 3300, Ethyl 2-amino-7-[4-(2-oxo-1,3-oxazolidin-3-yl)phenyl]-3H-1-benzazepine-4-carboxylate]
14 | < 1000 | < 1000 |  |  |  | NC1=Nc2ccc(-c3ccc(C(=O)N4CCCC4)cc3)cc2C=C(Br)C1 [Compound 3444]
15 | < 1000 | < 1000 |  |  |  | CCCN(CC(N)=O)C(=O)C1=Cc2cc(-c3ccc(C(=O)N4CCCC4)cc3C)ccc2N=C(N)C1 [Compound 3343, 2-Amino-N-(2-amino-2-oxoethyl)-7-[2-methyl-4-(pyrrolidin-1-ylcarbonyl)phenyl]-N-propyl-3H-1-benzazepine-4-carboxamide]
16 | < 1000 | < 1000 |  | < 1000 |  | CCOC(=O)C1=Cc2cc(-c3ccccc3OC)ccc2N=C(N)C1 [Compound 3264, Ethyl 2-amino-7-(2-methoxyphenyl)-3H-1-benzazepine-4-carboxylate]

From patent US9718796B2, “Substituted benzoazepines as toll-like receptor modulators” (VENTIRX PHARMACEUTICALS, INC., priority 2011, dated 2017)
